Target: Glutamate receptor (Oryctolagus cuniculus, UniProt G1SXH9)
Sequence (G1SXH9 whole entry): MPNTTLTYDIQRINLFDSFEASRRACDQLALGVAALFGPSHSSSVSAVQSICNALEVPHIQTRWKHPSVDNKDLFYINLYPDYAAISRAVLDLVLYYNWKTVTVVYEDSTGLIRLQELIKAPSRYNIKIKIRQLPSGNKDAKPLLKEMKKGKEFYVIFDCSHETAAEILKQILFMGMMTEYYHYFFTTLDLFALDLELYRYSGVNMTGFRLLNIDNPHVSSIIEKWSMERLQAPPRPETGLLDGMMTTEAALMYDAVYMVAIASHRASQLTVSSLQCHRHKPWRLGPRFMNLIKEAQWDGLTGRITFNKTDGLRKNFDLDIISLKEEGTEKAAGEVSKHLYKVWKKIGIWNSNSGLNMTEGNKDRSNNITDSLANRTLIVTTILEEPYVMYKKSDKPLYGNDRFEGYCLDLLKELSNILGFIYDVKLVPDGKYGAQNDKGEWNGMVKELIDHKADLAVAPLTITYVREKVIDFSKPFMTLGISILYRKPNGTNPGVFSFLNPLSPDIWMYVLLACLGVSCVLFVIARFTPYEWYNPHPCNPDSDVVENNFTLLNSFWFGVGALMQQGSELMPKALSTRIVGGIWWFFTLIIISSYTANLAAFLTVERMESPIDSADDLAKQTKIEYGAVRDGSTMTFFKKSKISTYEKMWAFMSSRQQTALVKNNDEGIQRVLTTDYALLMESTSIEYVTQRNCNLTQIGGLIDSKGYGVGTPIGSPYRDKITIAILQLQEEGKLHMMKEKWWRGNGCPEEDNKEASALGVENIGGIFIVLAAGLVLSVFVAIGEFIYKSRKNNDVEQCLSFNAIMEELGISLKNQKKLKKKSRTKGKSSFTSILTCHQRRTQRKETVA

Structure (SMILES)	Ki [nM]
C/C(=C\C=C\[C@@H](C)C(=O)O)[C@H]1CN[C@H](C(=O)O)[C@H]1CC(=O)O	0.71
N[C@@H](Cn1oc(=O)[nH]c1=O)C(=O)O [2-amino-3-(3,5-dioxo[1,2,4]oxadiazolidin-2-yl)propionic acid]	16.5
N#Cc1cc2nc(O)c(O)nc2cc1[N+](=O)[O-] [7-Cyano-3-hydroxy-6-nitro-quinoxalin-2-ol anion]	2150
N[C@@H](Cn1cc(F)c(=O)[nH]c1=O)C(=O)O [(S)-5-Fluorowillardiine]	> 10000
CN[C@H](CC(=O)O)C(=O)O [NMDA]	> 10000

From BindingDB's records for doi:10.1016/s0028-3908(97)00161-5 (University of Bristol, 1997)
